# “Also recorded” adds a separate entry of the source.
# Tested on: influenza A/PR/8/34
# Set-up: species or system C57/BL6 mice
# Details: mouse, in vivo
compound,measurement,value
CN[C@H]1CC[C@@H](c2ccc(Cl)c(Cl)c2)c2ccccc21 [Sertraline],"survival rate, result in words",dose dependant increase in survival rate; also recorded: improves survival rate

# Reference: patent US20100081713A1, “COMPOSITIONS AND METHODS FOR TREATING VIRAL INFECTIONS” (priority 2008, published 2010)
